Values quoted from earlier work as cited in patent publication US10238670B2, “9-aminomethyl minocycline compounds and methods of use thereof in urinary tract infection (UTI) treatment” (Paratek Pharmaceuticals, Inc., priority 2016, dated 2019).
Like-named read-outs stand apart in the source and are kept apart here.

Legend:
[1] = IV to oral transition therapy; cUTI; cited from earlier work
[2] = IV; cIAI; cited from earlier work
[3] = tested on: human plasma protein; settings: cited from earlier work

SMILES: CN(C)[C@@H]1C(O)=C(C(N)=O)C(=O)[C@@]2(O)C(O)=C3C(=O)c4c(O)c(NC(=O)CN5CCCC5)cc(F)c4C[C@H]3C[C@@H]12 [eravacycline]
- primary endpoint, non-inferiority compared to levofloxacin [1]: failed to achieve its primary endpoint of statistical non-inferiority
- primary endpoint [2]: did meet its primary endpoint
- human plasma protein binding ([3]; Concentration 100 ng/mL, literature): 79.3%
- human plasma protein binding ([3]; Concentration 1,000 ng/mL, literature): 87.0%
- human plasma protein binding ([3]; Concentration 10,000 ng/mL, literature): 89.3%
- human plasma protein binding ([3]; Concentration 100,000 ng/mL, literature): 97.0%
- type of plasma protein binding ([3]; binding increases with increasing drug concentrations): atypical, non-linear protein binding
- human plasma protein binding, Mean ([3]; literature): 79-97%
